Where two headings read alike, the source gives them in different places.
Key:
B-Raf kinase = target: T1, B-Raf kinase (Homo sapiens, UniProt P15056); assay: Biochemical assay for B-Raf (coupled pyruvate kinase/lactate dehydrogenase); details: read-out: BRAF
T1 construct: purchased Sigma

HCT-116 cells = assay: HCT-116 cell proliferation assay (resazurin); assay type: cell-based; details: read-out: HCT-116
In short: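 HCT-116 cells, 375 per well in McCoy's 5A with 10% FBS, exposed to serially diluted compound in triplicate for 67-72 h at 37 °C. Resazurin added for 4-5 h more; fluorescence (ex 540/em 600 nm) fitted to IC50.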

HPAF-II cells = assay: HPAF-II cell proliferation assay (resazurin); assay type: cell-based; details: read-out: HPAF-II
In short: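 Serial compound dilutions in triplicate with 750 cells/well in complete MEM with 10% FBS, 115 to 120 h at 37° C, 5% CO2. Resazurin then added for 18 to 24 h; fluorescence at ex 540/em 600 nm used to derive IC50.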

[1] = Table 1, inhibition of biochemical activity
[2] = Homo sapiens, Table 2, inhibition of cell proliferation

T1 sequence (P15056 416-766): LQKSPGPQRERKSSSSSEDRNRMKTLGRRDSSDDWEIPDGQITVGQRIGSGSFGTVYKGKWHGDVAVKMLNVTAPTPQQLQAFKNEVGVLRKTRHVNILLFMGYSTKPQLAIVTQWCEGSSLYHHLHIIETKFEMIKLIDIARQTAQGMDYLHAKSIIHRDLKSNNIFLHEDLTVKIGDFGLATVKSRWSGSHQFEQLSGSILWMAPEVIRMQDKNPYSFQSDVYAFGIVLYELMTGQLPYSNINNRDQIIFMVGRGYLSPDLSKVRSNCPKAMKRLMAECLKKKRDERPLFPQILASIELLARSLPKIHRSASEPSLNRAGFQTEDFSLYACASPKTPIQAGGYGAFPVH

IC50 (B-Raf kinase; [1]) [nM]	IC50 (B-Raf kinase; Table 3) [nM]	IC50 (HCT-116 cells; [2]) [nM]	IC50 (HCT-116 cells; Table 3) [nM]	Compound	IC50 (HPAF-II cells; [2]) [nM]	IC50 (HPAF-II cells; Table 3) [nM]
< 100	< 100	100 to 500	100 to 500	CNC(=O)c1cc(-c2cc(-c3cc(NC(=O)c4cc(C5CC5)cnn4)ccc3C)ccn2)ccn1 [Example 26]	100 to 500	100 to 500
< 100	< 100	< 100	< 100	CNC(=O)c1cc(-c2cc(-c3cc(NC(=O)c4cc(C5CC5)cnn4)ccc3C)cc(NCCO)n2)ccn1 [Example 27]	100 to 500	100 to 500

The remaining lines, values behind:

Compound	IC50 (B-Raf kinase; [1]) [nM]	IC50 (B-Raf kinase; Table 3) [nM]	IC50 (HCT-116 cells; [2]) [nM]	IC50 (HCT-116 cells; Table 3) [nM]	IC50 (HPAF-II cells; [2]) [nM]	IC50 (HPAF-II cells; Table 3) [nM]
CNC(=O)c1cc(-c2cc(-c3cc(NC(=O)c4cc(C(F)(F)F)cnn4)ccc3C)cc(C)n2)ccn1 [Example 2, N,6-dimethyl-4-(2-methyl-5-(5-(trifluoromethyl)pyridazine-3-carboxamido)phenyl)-[2,4′-bipyridine]-2′-carboxamide]	100 to 500	100 to 500	500 to 1000	500 to 1000	500 to 1000	500 to 1000
CNC(=O)c1cc(-c2cc(-c3cc(NC(=O)c4cc(C(F)(F)F)cnn4)ccc3C)ccn2)ccn1 [Example 9]	< 100	< 100	100 to 500	100 to 500	100 to 500	100 to 500
CNC(=O)c1cc(-c2cc(-c3cc(NC(=O)c4cc(C(F)(F)F)cnn4)ccc3C)cc(NCCO)n2)ccn1 [Example 18]	< 100	< 100	< 100	< 100	100 to 500	100 to 500

Reference: patent US20260176260A1, “DUAL RAF AND TUBULIN INHIBITORS AND METHODS OF USE THEREOF” (Deciphera Pharmaceuticals, LLC, priority 2023, published 2026)
